Source: patent US11981686B2, “Urea compound having substituent” (DAIICHI SANKYO COMPANY, LIMITED, priority 2019, dated 2024)

Target: SIRT6 enzyme (Homo sapiens, UniProt Q8N6T7)
Assay: Measurement of deacetylation activity (SIRT6, AlphaLISA, H3K9(Ac) peptide)
Assay type: biochemical
Conditions: SIRT6 25 ng/mL, H3K9(Ac) biotin peptide 2 nM, NAD 10 μM, room temperature 30 minutes, duplicate
How it was run: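 Activation read as EC150, the concentration giving 150% activity relative to enzyme/no-enzyme DMSO controls, via variable-slope fit. Deacetylation of 2 nM biotinylated H3K9(Ac) peptide with 10 μM NAD+ by 25 ng/mL SIRT6 ran 30 min at room temperature, pH 8.0, then AlphaLISA detection of unmodified H3K9.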

SIRT6 enzyme, sequence (Q8N6T7 whole entry, species assumed): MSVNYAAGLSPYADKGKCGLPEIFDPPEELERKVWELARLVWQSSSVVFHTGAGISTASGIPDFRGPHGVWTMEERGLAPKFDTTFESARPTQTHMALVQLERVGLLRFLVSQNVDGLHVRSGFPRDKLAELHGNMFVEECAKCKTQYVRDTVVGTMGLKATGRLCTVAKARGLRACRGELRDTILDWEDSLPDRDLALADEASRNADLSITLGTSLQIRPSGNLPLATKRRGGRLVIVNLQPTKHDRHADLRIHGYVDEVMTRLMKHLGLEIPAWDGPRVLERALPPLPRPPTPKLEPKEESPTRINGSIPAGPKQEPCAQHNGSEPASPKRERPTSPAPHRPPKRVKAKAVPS

| Compound | EC150 (the concentration of the compound showing a relative enzyme activity of 150%) [μm] |
| --- | --- |
| CC(C)(O)CNC(=O)Nc1nc2c(s1)[C@@H]1COC[C@H](C2)N1c1cc(-c2ccc(F)cc2)on1 [Example 63, N-{(4S,8S)-10-[5-(4-fluorophenyl)-1,2-oxazol-3-yl]-4,7,8,9-tetrahydro-5H-4,8-epiminooxocino[5,4-d][1,3]thiazol-2-yl}-N′-(2-hydroxy-2-methylpropyl)urea] | 2.3 |
| CNC(=O)Nc1nc2c(s1)C1CN(C(=O)OC)CC(C2)N1c1cc(-c2ccc(F)cc2)on1 (stereo not shown) [Example 64, Methyl 10-[5-(4-fluorophenyl)-1,2-oxazol-3-yl]-2-[(methylcarbamoyl)amino]-4,7,8,9-tetrahydro-4,8-epimino[1,3]thiazolo[5,4-d]azocine-6(5H)-carboxylate] | 0.49 |
| C[C@@H](O)CNC(=O)Nc1nc2c(s1)[C@@H]1COC[C@H](C2)N1c1cc(-c2ccc(F)cc2)on1 [Example 65, N-{(4S,8S)-10-[5-(4-fluorophenyl)-1,2-oxazol-3-yl]-4,7,8,9-tetrahydro-5H-4,8-epiminooxocino[5,4-d][1,3]thiazol-2-yl}-N′-[(2R)-2-hydroxypropyl]urea] | 2.1 |
| C[C@H](CO)NC(=O)Nc1nc2c(s1)[C@@H]1COC[C@H](C2)N1c1ncc(-c2cccc(OC(F)F)n2)o1 [Example 66, N-[(4S,8S)-10-{5-[6-(difluoromethoxy)pyridin-2-yl]-1,3-oxazol-2-yl}-4,7,8,9-tetrahydro-5H-4,8-epiminooxocino[5,4-d][1,3]thiazol-2-yl]-N′-[(2R)-1-hydroxypropan-2-yl]urea] | 0.39 |
| COc1cccc(-c2cnc(N3[C@@H]4COC[C@H]3c3sc(NC(=O)N[C@H](C)CO)nc3C4)o2)n1 [Example 67, N-[(2R)-1-hydroxypropan-2-yl]-N′-{(4S,8S)-10-[5-(6-methoxypyridin-2-yl)-1,3-oxazol-2-yl]-4,7,8,9-tetrahydro-5H-4,8-epiminooxocino[5,4-d][1,3]thiazol-2-yl}urea] | 0.75 |
| CCOc1cccc(-c2cnc(N3[C@@H]4COC[C@H]3c3sc(NC(=O)N[C@H](C)CO)nc3C4)o2)n1 [Example 68, N-{(4S,8S)-10-[5-(6-ethoxypyridin-2-yl)-1,3-oxazol-2-yl]-4,7,8,9-tetrahydro-5H-4,8-epiminooxocino[5,4-d][1,3]thiazol-2-yl}-N′-[(2R)-1-hydroxypropan-2-yl]urea] | 1 |
| CC(C)(CO)NC(=O)Nc1nc2c(s1)[C@@H]1COC[C@H](C2)N1c1ncc(-c2cccc(C(F)F)c2)o1 [Example 69, N-[(4S,8S)-10-{5-[3-(difluoromethyl)phenyl]-1,3-oxazol-2-yl}-4,7,8,9-tetrahydro-5H-4,8-epiminooxocino[5,4-d][1,3]thiazol-2-yl]-N′-(1-hydroxy-2-methylpropan-2-yl)urea] | 0.59 |
| C[C@H](CO)NC(=O)Nc1nc2c(s1)[C@@H]1COC[C@H](C2)N1c1ncc(-c2cccc(OC(F)F)c2)o1 [Example 70, N-[(4S,8S)-10-{5-[3-(difluoromethoxy)phenyl]-1,3-oxazol-2-yl}-4,7,8,9-tetrahydro-5H-4,8-epiminooxocino[5,4-d][1,3]thiazol-2-yl]-N′-[(2R)-1-hydroxypropan-2-yl]urea] | 0.45 |
| C[C@H](CO)NC(=O)Nc1nc2c(s1)[C@@H]1COC[C@H](C2)N1c1ncc(-c2cccc(C(F)F)c2)o1 [Example 71, N-[(4S,8S)-10-{5-[3-(difluoromethyl)phenyl]-1,3-oxazol-2-yl}-4,7,8,9-tetrahydro-5H-4,8-epiminooxocino[5,4-d][1,3]thiazol-2-yl]-N′-[(2R)-1-hydroxypropan-2-yl]urea] | 0.34 |
| C[C@@H](O)CNC(=O)Nc1nc2c(s1)[C@@H]1COC[C@H](C2)N1c1ncc(-c2cccc(C(F)F)c2)o1 [Example 72, N-[(4S,8S)-10-{5-[3-(difluoromethyl)phenyl]-1,3-oxazol-2-yl}-4,7,8,9-tetrahydro-5H-4,8-epiminooxocino[5,4-d][1,3]thiazol-2-yl]-N′-[(2R)-2-hydroxypropyl]urea] | 0.36 |
| O=C(Nc1nc2c(s1)[C@@H]1COC[C@H](C2)N1c1ncc(-c2cccc(OC(F)F)c2)o1)N[C@@H]1CCOC1 [Example 73, N-[(4S,8S)-10-{5-[3-(difluoromethoxy)phenyl]-1,3-oxazol-2-yl}-4,7,8,9-tetrahydro-5H-4,8-epiminooxocino[5,4-d][1,3]thiazol-2-yl]-N′-[(3R)-oxolan-3-yl]urea] | 0.4 |
| C[C@H](CO)NC(=O)Nc1nc2c(s1)CN(c1nc3cc(S(C)(=O)=O)ccc3o1)C(C)(C)C2 [Example 74, N-[(2R)-1-hydroxypropan-2-yl]-N′-{5-[5-(methanesulfonyl)-1,3-benzoxazol-2-yl]-6,6-dimethyl-4,5,6,7-tetrahydro[1,3]thiazolo[5,4-c]pyridin-2-yl}urea] | 0.68 |
| CC(C)(O)CNC(=O)Nc1nc2c(s1)CN(c1nc3cc(S(C)(=O)=O)ccc3o1)C(C)(C)C2 [Example 75, N-(2-hydroxy-2-methylpropyl)-N′-{5-[5-(methanesulfonyl)-1,3-benzoxazol-2-yl]-6,6-dimethyl-4,5,6,7-tetrahydro[1,3]thiazolo[5,4-c]pyridin-2-yl}urea] | 0.94 |
| [2H]C([2H])([2H])Oc1ccc2oc(N3[C@@H]4COC[C@H]3c3sc(NC(=O)N[C@H](C)CO)nc3C4)nc2c1 [Example 76, N-[(2R)-1-hydroxypropan-2-yl]-N′-[(4S,8S)-10-{5-[(^2H3)methyloxy]-1,3-benzoxazol-2-yl}-4,7,8,9-tetrahydro-5H-4,8-epiminooxocino[5,4-d][1,3]thiazol-2-yl]urea] | 1.3 |
| [2H]C([2H])([2H])Oc1ccc2oc(N3[C@@H]4COC[C@H]3c3sc(NC(=O)N[C@@H]5CCOC5)nc3C4)nc2c1 [Example 77, N-[(4S,8S)-10-{5-[(^2H3)methyloxy]-1,3-benzoxazol-2-yl}-4,7,8,9-tetrahydro-5H-4,8-epiminooxocino[5,4-d][1,3]thiazol-2-yl]-N′-[(3R)-oxolan-3-yl]urea] | 0.79 |
| COc1cccc(-c2cnc(N3[C@@H]4COC[C@H]3c3sc(NC(=O)N[C@H]5C[C@H](O)C5)nc3C4)o2)n1 [Example 78, N-[(1r,3S)-3-hydroxycyclobutyl]-N′-{(4S,8S)-10-[5-(6-methoxypyridin-2-yl)-1,3-oxazol-2-yl]-4,7,8,9-tetrahydro-5H-4,8-epiminooxocino[5,4-d][1,3]thiazol-2-yl}urea] | 0.41 |
